# Reference: patent US20230203055A1, “FUSED RING COMPOUND AND APPLICATION THEREOF IN MEDICINE” (Betta Pharmaceuticals Co., LTD, priority 2020, published 2023)
# What was measured:
# [1] = system: H358 cells; test: Detection of cell proliferation inhibition, H358 (Cell-titer Glo, 96 h); format: cell-based; conditions: Homo sapiens, NCI-H358, read-out: IC50 (nM) H358
# Method: H358 cells were plated in 96-well ultra-low adsorption plates at 2000 cells and 190 µL/well. After overnight incubation, compound solutions of gradient concentrations were prepared, and 10 µL of the DMSO solution of each concentration of the compound to be tested was added to the cells in each well. Compound final concentrations were 10000, 3333.3, 1111.1, 370.4, 123.5, 41.2, 13.7, 4.6, 1.5, 0 nM (all final concentrations of DMSO were 0.25%). Incubate at 37° C., 5% CO2 for 96 h. Add 50 µL of Cell-titer Glo working solution to each well, incubate at room temperature for 10 min after shaking and mixing, read the Luminescence luminescence value with a multi-function microplate reader, and convert the luminescence value reading into the inhibition percentage:
# Percent Inhibition = (Max-Reading)/(Max-Min)* 100. • “Max” is the DMSO control, • “Min” is the cell-free control.
# Curve fitting was performed with Graphpad Prism software and IC50 values were obtained. See Table 1 for IC50 data on H358 cell inhibition by example compounds.
# [2] = system: MIA PaCa-2 cells; test: Detection of cell proliferation inhibition, MIA PaCa-2 (Cell-titer Glo, 96 h); format: cell-based; conditions: Homo sapiens, read-out: IC50 (nM) MIA PaCa-2
# Method: MIA PaCa-2 cells were plated in a 96-well ultra-low adsorption plate at 600 cells and 160 µL/well. After overnight incubation, compound solutions with gradient concentrations were prepared, and 40 µL of DMSO solutions of the compounds to be tested were added to each well of cells respectively. Compound final concentrations were 10000, 2000, 400, 80, 16, 3.2, 0.64, 0.12, 0.025, 0 nM (all final concentrations of DMSO were 0.25%). Incubate at 37° C., 5% CO2 for 96 h. Add 50 µL of Cell-titer Glo working solution to each well, shake and mix well, incubate at room temperature for 10 min, read the Luminescence luminescence value with a multi-function microplate reader, and convert the luminescence value reading into inhibition percentage: Percent Inhibition = (Max-Reading)/(Max-Min)* 100. • “Max” is the DMSO control; • “Min” is the cell-free control.
# Curve fitting was performed with Graphpad Prism software and IC50 values were obtained. See Table 1for IC50 data for the inhibition of MIA PaCa-2 cells by the compounds of the examples.
Structure (SMILES),IC50 [1] [nM],IC50 [2] [nM]
C=CC(=O)N1CCN(c2nc(=O)n(-c3c(CC)ncnc3CC)c3c4c(c(Cl)cc23)-c2c(F)cccc2CCO4)[C@@H](C)C1 [Example 24],< 50,< 50
"C=CC(=O)N1CCN(c2nc(=O)n(-c3c(C)ccnc3C(C)C)c3c4c(c(F)cc23)-c2c(F)cccc2CO4)CC1CC#N (stereo not shown) [Example 25, 2-(1-Acryloyl-4-(10,11-Difluoro-4-(2-Isopropyl-4-Methylpyridin-3-yl)-3-Oxo-3,6-Dihydro-4H-Isochromene[4,3-h] Quinazolin-1-yl) Piperazin-2-yl)Acetonitrile]",339,122
"C=CC(=O)N1CCN(c2nc(=O)n(-c3c(C)ccnc3C(C)C)c3c(F)c4c(cc23)OCc2cccc(F)c2-4)CC1CC#N (stereo not shown) [Example 26, 2-(1-Acryloyl-4-(1,12-Difluoro-11-(2-Isopropyl-4-Methylpyridin-3-yl)-10-Oxo-10,11-Dihydro-5H -Isochromene[3,4-g]Quinazolin-8-yl)Piperazin-2-yl)Acetonitrile]",349,546
C=CC(=O)N1CCN(c2nc(=O)n(-c3c(C(C)C)ncc4c3CCC4)c3c4c(c(Cl)cc23)-c2c(ccc(F)c2F)CO4)[C@@H](C)C1 [Example 27],110,66
C=CC(=O)N1CCN(c2nc(=O)n(-c3c(C)ccnc3C(C)C)c3c4c(c(Cl)cc23)-c2c(F)ccc(O)c2CO4)[C@@H](C)C1 [Example 28],95,85
C=CC(=O)N1CCN(c2nc(=O)n(-c3c(C)ccnc3C(C)C)c3c4c(c(Cl)cc23)-c2c(F)ccc(F)c2CO4)[C@@H](C)C1 [Example 29],< 50,< 50
"C=CC(=O)N1CCN(c2nc(=O)n(-c3c(C)ccnc3C(C)C)c3c4c(c(Cl)cc23)-c2c(ccc(F)c2F)CCO4)[C@@H](C)C1 [Example 30, 10-((S)-4-Acryloyl-2-Methylpiperazin-1-yl)-8-Chloro-6,7-Difluoro-13-(2-Isopropyl-4-Methylpyridin-3-yl)-2,3-Dihydrobenzo[4,5] Oxa[3,2-h]Quinazolin-12(13H)-One]",< 50,< 50
"C=CC(=O)N1CCN(c2nc(=O)n(-c3c(CC)cncc3CC)c3c4c(c(Cl)cc23)-c2c(F)cccc2CCO4)[C@@H](C)C1 [Example 31, 10-((S)-4-Actyloyl-2-Methylpiperazin-1-yl)-8-Chloro-13-(3,5-Diethylpyridin-4-yl)-7-Fluoro-2,3-Dihydrobenzo[4,5]Oxa[3,2-h]Quinazolin-12(13H)-One]",< 50,< 50
"C=CC(=O)N1CCN(c2nc(=O)n(-c3c(C4CC4)ncnc3C3CC3)c3c4c(c(Cl)cc23)-c2c(F)cccc2CCO4)[C@@H](C)C1 [Example 32, 10-((S)-4-Acryloyl-2-Methylpiperazin-1-yl)-8-Chloro-13-(4,6-Dicyclopropylpyrimidine-5-Base)-7 -Fluoro-2,3-Dihydrobenzo[4,5] Oxa[3,2-h]Quinazolin-12(13H)-One]",< 50,< 50
"C=CC(=O)N1CCN(c2nc(=O)n(-c3c(C)ccnc3C(C)C)c3c4c(c(Cl)cc23)-c2c(F)cccc2CO4)C2CC21 (stereo not shown) [Example 33, 1-(5-Acryloyl-2,5-Diazabicyclo [4.1.0] Heptan-2-yl)-11-Chloro-10-Fluoro-4-(2-Isopropyl-4-Methylpyridin-3-yl)-4H-Isochromeno[4,3-h]Quinazolin-3(6H)-One]",< 50,< 50
"C=C(F)C(=O)N1CCN(c2nc(=O)n(-c3c(C)ccnc3C(C)C)c3c4c(c(Cl)cc23)-c2c(ccc(F)c2F)CO4)[C@@H](C)C1 [Example 34, (S)-11-Chloro-9,10-Difluoro-1-(4-(2-Fluoroacryloyl)-2-Methylpiperazin-1-yl)-4-(2-Isopropyl-4-Methylpyridin-3-yl)-4H-Isochromo[4,3-h] Quinazolin-3(6H)-One]",780,908
[2H]C1([2H])Oc2c(c(Cl)cc3c(N4CCN(C(=O)C=C)C[C@@H]4C)nc(=O)n(-c4c(C)ccnc4C(C)C)c23)-c2c1ccc(F)c2F [Example 35],< 50,< 50
"C=CC(=O)N1CCN(c2nc(=O)n(-c3c(C)ccnc3C(C)C)c3nc4c(cc23)OCc2ccccc2-4)[C@@H](C)C1 [Example 36, (S)-8-(4-Acryloyl-2-Methylpiperazin-1-yl)-11-(2-Isopropyl-4-Methylpyridin-3-yl) -5H-Isochromene[3’,4′:5,6]Pyrido[2,3-d]Pyrimidin-10(11H)-One]",889,442
"C=CC(=O)N1CCN(c2nc(=O)n(-c3c(C)ccnc3C(C)C)c3nc4c(cc23)OCc2cccc(O)c2-4)[C@@H](C)C1 [Example 37, (S)-8-(4-Acryloyl-2-Methylpiperazin-1-yl)-1-Hydroxy-11-(2-Isopropyl-4-Methylpyridine-3-yl)-5 H-Isochromene [3’,4’:5,6] Pyrido [2,3-d] Pyrimidin 10(11H)-One]",2490,1340
